Test results from patent US8975398B2, “NAMPT inhibitors” (AbbVie Inc., priority 2012, dated 2015).

Legend:
[1] = target: NAMPT (Homo sapiens, UniProt P43490); experiment: Time-Resolved Fluorescence Resonance Energy Transfer (TR-FRET) Binding Assay of NAMPT with PRPP; conditions: 2 nM NAMPT, 2 nM probe, 200 uM PRPP and 2.5 mM ATP, equilibrated 16 hours
Method: Time-Resolved Fluorescence Resonance Energy Transfer (TR-FRET) Binding Assay of NAMPT with PRPP
Compound handling and data processing were identical to the assay in the absence of substrates (above). Final concentrations were 1× assay buffer, 2% DMSO, 2 nM NAMPT, 2 nM probe, 1 nM Tb-anti-His antibody (Invitrogen #PV5895), 200 uM PRPP and 2.5 mM ATP. Reactions were equilibrated for 16 hours prior to measurement to allow for potential enzymatic modification of test compounds.

[2] = target: NAMPT (human, recombinant, C-terminally His-tagged) (Homo sapiens, UniProt P43490); experiment: Time-Resolved Fluorescence Resonance Energy Transfer (TR-FRET) Binding Assay of NAMPT; conditions: 6.8 nM NAMPT, 200 nM probe, equilibrated 3 hours, absence of substrates
Method: Determination of the utility of compounds having Formula (I) as binders to and inhibitors of NAMPT was performed using Time-Resolved Fluorescence Resonance Energy Transfer (TR-FRET) binding assays.
Time-Resolved Fluorescence Resonance Energy Transfer (TR-FRET) Binding Assay of NAMPT
Test compounds were serially diluted (typically 11 half log dilutions) in neat DMSO to 50× final concentrations prior to dilution with assay buffer (50 mM HEPES (NaOH), pH 7.5, 100 mM NaCl, 10 mM MgCl2, 1 mM DTT, 1% Glycerol) to 3× and 6% DMSO. Six μL were transferred to 384-well low-volume plates (Owens Corning #3673). To this, 12 μL of a 1.5× solution containing enzyme, probe and antibody were added. Final concentrations in the 18 μL, reactions were 1× assay buffer, 2% DMSO, 6.8 nM NAMPT (human, recombinant, C-terminally His-tagged), 200 nM probe (a potent nicotinamide-competitive inhibitor conjugated to Oregon Green 488) and 1 nM Tb-anti-His antibody (Invitrogen #PV5895). Reactions were equilibrated at room temperature for 3 hours prior to reading on an Envision multi-label plate reader (Perkin Elmer; Ex=337 nm, Em=520 and 495 nm). Time-resolved FRET ratios (Em520/Em495) were normalized to controls, plotted as a function of compound concentration and fit with the four-parameter logistic equation to determine IC50s.

Sequence of NAMPT (human, recombinant, C-terminally His-tagged) (P43490 whole entry): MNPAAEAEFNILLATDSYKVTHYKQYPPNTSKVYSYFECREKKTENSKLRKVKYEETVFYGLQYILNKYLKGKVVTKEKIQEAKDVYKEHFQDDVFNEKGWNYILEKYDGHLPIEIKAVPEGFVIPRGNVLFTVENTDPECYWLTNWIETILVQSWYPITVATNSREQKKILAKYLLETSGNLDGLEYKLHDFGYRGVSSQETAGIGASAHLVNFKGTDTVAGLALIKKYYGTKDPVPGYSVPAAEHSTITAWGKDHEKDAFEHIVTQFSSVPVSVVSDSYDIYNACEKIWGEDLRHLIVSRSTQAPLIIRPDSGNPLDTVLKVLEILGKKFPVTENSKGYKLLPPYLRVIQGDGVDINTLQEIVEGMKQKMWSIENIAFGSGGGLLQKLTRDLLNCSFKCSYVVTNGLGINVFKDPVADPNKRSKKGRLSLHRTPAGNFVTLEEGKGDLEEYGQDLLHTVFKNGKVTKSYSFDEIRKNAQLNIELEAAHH
Sequence of NAMPT (P43490 whole entry): as above

Compound | IC50 [1] | IC50 [2]
CC(C)(C)OC(=O)N1CCC(c2ccc(C(=O)NC3CN(c4cccnn4)C3)cc2)CC1 [Example 314, tert-butyl 4-(4-{[1-(pyridazin-3-yl)azetidin-3-yl]carbamoyl}phenyl)piperidine-1-carboxylate] | 0.572 nM | 3860 nM
CC(C)Cn1cc(-c2ccc(C(=O)NC3CN(c4cccnn4)C3)o2)cn1 [Example 309, 5-[1-(2-methylpropyl)-1H-pyrazol-4-yl]-N-[1-(pyridazin-3-yl)azetidin-3-yl]furan-2-carboxamide] | 0.293 nM | 4150 nM
CN1CCN(CC(=O)N2CCC(c3ccc(NC(=O)C4CN(c5cccnc5)C4)cc3)CC2)CC1 [Example 113, N-(4-{1-[(4-methylpiperazin-1-yl)acetyl]piperidin-4-yl}phenyl)-1-(pyridin-3-yl)azetidine-3-carboxamide] | 0.254 nM | 60.6 nM
Cc1ncccc1N1CC(C(=O)Nc2ccc(C3CCN(C(=O)c4ccc(Cl)cc4)CC3)cc2)C1 [Example 156, N-{4-[1-(4-chlorobenzoyl)piperidin-4-yl]phenyl}-1-(2-methylpyridin-3-yl)azetidine-3-carboxamide] | 84.3 nM | 396 nM
Cc1ncccc1N1CC(C(=O)Nc2ccc(C3CCN(C(=O)CC(C)C)CC3)cc2)C1 [Example 197, N-{4-[1-(3-methylbutanoyl)piperidin-4-yl]phenyl}-1-(2-methylpyridin-3-yl)azetidine-3-carboxamide] | 79.8 nM | 126 nM
CC(C)(O)C(=O)N1CCC(c2ccc(NC(=O)C3CN(c4cccnc4)C3)cc2)CC1 [Example 20, N-{4-[1-(2-hydroxy-2-methylpropanoyl)piperidin-4-yl]phenyl}-1-(pyridin-3-yl)azetidine-3-carboxamide] | 0.296 nM | 6.74 nM
O=C(Nc1ccc(OC2CCN(C(=O)Cc3ccc(C(F)(F)F)cc3)CC2)cc1)C1CN(c2cccnn2)C1 [Example 220, 1-(pyridazin-3-yl)-N-{4-[(1-{[4-(trifluoromethyl)phenyl]acetyl}piperidin-4-yl)oxy]phenyl}azetidine-3-carboxamide] | 1.01 nM | 267 nM
Cc1ccsc1C(=O)N1CCC(c2ccc(NC(=O)C3CN(c4cccnc4C)C3)cc2)CC1 [Example 171, 1-(2-methylpyridin-3-yl)-N-(4-{1-[(3-methylthiophen-2-yl)carbonyl]piperidin-4-yl}phenyl)azetidine-3-carboxamide] | 37.9 nM | 19.7 nM
O=C(Nc1ccc(OC2CCN(C(=O)CC3CCOCC3)CC2)cc1)[C@H]1CCN(c2cccnc2)C1 [Example 11, (3S)-1-(pyridin-3-yl)-N-(4-{[1-(tetrahydro-2H-pyran-4-ylacetyl)piperidin-4-yl]oxy}phenyl)pyrrolidine-3-carboxamide] | 1.93 nM | 2370 nM
Cc1ncccc1N1CC(C(=O)Nc2ccc(C3CCN(C(=O)c4ccccc4Cl)CC3)cc2)C1 [Example 151, N-{4-[1-(2-chlorobenzoyl)piperidin-4-yl]phenyl}-1-(2-methylpyridin-3-yl)azetidine-3-carboxamide] | 43.6 nM | 17.4 nM
CCCN1CCC(c2ccc(NC(=O)C3CN(c4cccnc4)C3)cc2)CC1 [Example 95, N-[4-(1-propylpiperidin-4-yl)phenyl]-1-(pyridin-3-yl)azetidine-3-carboxamide] | 1.02 nM | 1360 nM
O=C(NC1CN(c2cccnc2)C1)c1ccc(OC2CCN(C(=O)CC3CCOCC3)CC2)cc1 [Example 21, N-[1-(pyridin-3-yl)azetidin-3-yl]-4-{[1-(tetrahydro-2H-pyran-4-ylacetyl)piperidin-4-yl]oxy}benzamide] | 0.507 nM | 7380 nM

Results, then the molecule that gave them:

IC50 [1] | IC50 [2] | Compound
0.861 nM | 112 nM | COCCOCC(=O)N1CCC(Oc2ccc(NC(=O)C3CN(c4cccnc4)C3)cc2)CC1 [Example 48, N-[4-({1-[(2-methoxyethoxy)acetyl]piperidin-4-yl}oxy)phenyl]-1-(pyridin-3-yl)azetidine-3-carboxamide]
15.5 nM | 30.9 nM | O=C(Nc1ccc(OC2CCN(C(=O)c3cccs3)CC2)cc1)C1CN(c2ccnnc2)C1 [Example 303, 1-(pyridazin-4-yl)-N-(4-{[1-(thiophen-2-ylcarbonyl)piperidin-4-yl]oxy}phenyl)azetidine-3-carboxamide]
1.64 nM | 265 nM | O=C(Nc1ccc(OC2CCN(C(=O)c3cscn3)CC2)cc1)C1CN(c2cccnn2)C1 [Example 218, 1-(pyridazin-3-yl)-N-(4-{[1-(1,3-thiazol-4-ylcarbonyl)piperidin-4-yl]oxy}phenyl)azetidine-3-carboxamide]
56.5 nM | 274 nM | COCC(=O)N1CCC(Oc2ccc(NC(=O)C3CN(c4ccnnc4)C3)cc2)CC1 [Example 267, N-(4-{[1-(methoxyacetyl)piperidin-4-yl]oxy}phenyl)-1-(pyridazin-4-yl)azetidine-3-carboxamide]
15.9 nM | 37.7 nM | CC[C@H](C)C(=O)N1CCC(Oc2ccc(NC(=O)C3CN(c4ccnnc4)C3)cc2)CC1 [Example 307, N-[4-({1-[(2S)-2-methylbutanoyl]piperidin-4-yl}oxy)phenyl]-1-(pyridazin-4-yl)azetidine-3-carboxamide]
55.1 nM | 112 nM | CC(C)C(=O)N1CCC(Oc2ccc(NC(=O)C3CN(c4ccnnc4)C3)cc2)CC1 [Example 294, N-(4-{[1-(2-methylpropanoyl)piperidin-4-yl]oxy}phenyl)-1-(pyridazin-4-yl)azetidine-3-carboxamide]
63.2 nM | 125 nM | O=C(Nc1ccc(OC2CCN(C(=O)c3ccc(C(F)(F)F)cc3)CC2)cc1)C1CN(c2ccnnc2)C1 [Example 287, 1-(pyridazin-4-yl)-N-[4-({1-[4-(trifluoromethyl)benzoyl]piperidin-4-yl}oxy)phenyl]azetidine-3-carboxamide]
0.817 nM | 82.6 nM | CCC(C)(C)C(=O)N1CCC(Oc2ccc(NC(=O)C3CN(c4cccnn4)C3)cc2)CC1 [Example 248, N-(4-{[1-(2,2-dimethylbutanoyl)piperidin-4-yl]oxy}phenyl)-1-(pyridazin-3-yl)azetidine-3-carboxamide]
0.584 nM | 48 nM | O=C(Nc1ccc(OC2CCN(C(=O)c3ccc(F)cc3F)CC2)cc1)C1CN(c2cccnn2)C1 [Example 229, N-(4-{[1-(2,4-difluorobenzoyl)piperidin-4-yl]oxy}phenyl)-1-(pyridazin-3-yl)azetidine-3-carboxamide]
21.8 nM | 29.5 nM | CC[C@H](C)C(=O)N1CC(Oc2ccc(NC(=O)C3CN(c4ccnnc4)C3)cc2)C1 [Example 265, N-[4-({1-[(2S)-2-methylbutanoyl]azetidin-3-yl}oxy)phenyl]-1-(pyridazin-4-yl)azetidine-3-carboxamide]
0.683 nM | 59.5 nM | O=C(Nc1ccc(OC2CCN(C(=O)c3ccsc3)CC2)cc1)C1CN(c2cccnc2)C1 [Example 58, 1-(pyridin-3-yl)-N-(4-{[1-(thiophen-3-ylcarbonyl)piperidin-4-yl]oxy}phenyl)azetidine-3-carboxamide]
0.841 nM | 165 nM | O=C(Nc1ccc(OC2CCN(C(=O)C3CCOCC3)CC2)cc1)C1CN(c2cccnn2)C1 [Example 214, 1-(pyridazin-3-yl)-N-(4-{[1-(tetrahydro-2H-pyran-4-ylcarbonyl)piperidin-4-yl]oxy}phenyl)azetidine-3-carboxamide]
0.911 nM | 54.6 nM | O=C(Nc1ccc(OC2CCN(C(=O)c3ccccc3F)CC2)cc1)C1CN(c2cccnn2)C1 [Example 228, N-(4-{[1-(2-fluorobenzoyl)piperidin-4-yl]oxy}phenyl)-1-(pyridazin-3-yl)azetidine-3-carboxamide]
0.833 nM | 112 nM | O=C(Nc1ccc(OC2CCN(C(=O)Cc3cc(F)cc(F)c3)CC2)cc1)C1CN(c2cccnn2)C1 [Example 239, N-[4-({1-[(3,5-difluorophenyl)acetyl]piperidin-4-yl}oxy)phenyl]-1-(pyridazin-3-yl)azetidine-3-carboxamide]
1.07 nM | 180 nM | COCC(=O)N1CCC(Oc2ccc(NC(=O)C3CN(c4cccnc4)C3)cc2)CC1 [Example 57, N-(4-{[1-(methoxyacetyl)piperidin-4-yl]oxy}phenyl)-1-(pyridin-3-yl)azetidine-3-carboxamide]
0.563 nM | 141 nM | O=C(Nc1ccc(OC2CCN(C(=O)Cc3ccc(F)cc3)CC2)cc1)C1CN(c2cccnn2)C1 [Example 232, N-[4-({1-[(4-fluorophenyl)acetyl]piperidin-4-yl}oxy)phenyl]-1-(pyridazin-3-yl)azetidine-3-carboxamide]
